Measured values reported in the NIST ThermoML archive (doi:10.1016/j.jct.2019.03.011).
Numbers after ± are expanded uncertainties.

Assay: wn = mass fraction of the nth substance listed
Conditions: 101 kPa, Liquid; for viscosity: Falling or rolling sphere viscometry; for speed of sound: Frequency=3 MHz, Single path-length method; for mass density: Vibrating tube method

Cl.NNC(N)=O [semicarbazide hydrochloride] + O
viscosity (293.15 K, w1 = 0.01): 1.016 ± 0.013 mPa·s
viscosity (293.15 K, w1 = 0.02): 1.031 ± 0.013 mPa·s
speed of sound (293.15 K, w1 = 0.01): 1490 ± 3.1 m/s
speed of sound (293.15 K, w1 = 0.02): 1495.8 ± 3.1 m/s
mass density (293.15 K, w1 = 0.01): 1002.51 ± 0.52 kg/m3
mass density (293.15 K, w1 = 0.02): 1006.71 ± 0.52 kg/m3
viscosity (298.15 K, w1 = 0.01): 0.9018 ± 0.011 mPa·s
viscosity (298.15 K, w1 = 0.02): 0.9134 ± 0.012 mPa·s
speed of sound (298.15 K, w1 = 0.01): 1503 ± 3.1 m/s
speed of sound (298.15 K, w1 = 0.02): 1509 ± 3.1 m/s
mass density (298.15 K, w1 = 0.01): 1001.29 ± 0.52 kg/m3
mass density (298.15 K, w1 = 0.02): 1005.43 ± 0.51 kg/m3
viscosity (303.15 K, w1 = 0.01): 0.8053 ± 0.01 mPa·s
viscosity (303.15 K, w1 = 0.02): 0.8152 ± 0.01 mPa·s
speed of sound (303.15 K, w1 = 0.01): 1515.1 ± 3.1 m/s
speed of sound (303.15 K, w1 = 0.02): 1520.9 ± 3.1 m/s
mass density (303.15 K, w1 = 0.01): 999.819 ± 0.52 kg/m3
mass density (303.15 K, w1 = 0.02): 1003.99 ± 0.51 kg/m3
viscosity (308.15 K, w1 = 0.01): 0.7251 ± 0.0091 mPa·s
viscosity (308.15 K, w1 = 0.02): 0.733 ± 0.0093 mPa·s
speed of sound (308.15 K, w1 = 0.01): 1525.6 ± 3.1 m/s
speed of sound (308.15 K, w1 = 0.02): 1531.2 ± 3.1 m/s
mass density (308.15 K, w1 = 0.01): 998.185 ± 0.52 kg/m3
mass density (308.15 K, w1 = 0.02): 1002.31 ± 0.51 kg/m3
viscosity (313.15 K, w1 = 0.01): 0.6562 ± 0.0082 mPa·s
viscosity (313.15 K, w1 = 0.02): 0.6646 ± 0.0084 mPa·s
speed of sound (313.15 K, w1 = 0.01): 1534.3 ± 3.1 m/s
speed of sound (313.15 K, w1 = 0.02): 1540 ± 3.1 m/s
mass density (313.15 K, w1 = 0.01): 996.304 ± 0.51 kg/m3
mass density (313.15 K, w1 = 0.02): 1000.34 ± 0.51 kg/m3
viscosity (318.15 K, w1 = 0.01): 0.6021 ± 0.0076 mPa·s
viscosity (318.15 K, w1 = 0.02): 0.6062 ± 0.0076 mPa·s
speed of sound (318.15 K, w1 = 0.01): 1540.7 ± 3.1 m/s
speed of sound (318.15 K, w1 = 0.02): 1546.7 ± 3.1 m/s
mass density (318.15 K, w1 = 0.01): 994.429 ± 0.51 kg/m3
mass density (318.15 K, w1 = 0.02): 998.472 ± 0.51 kg/m3
